According to patent publication US12673041B2, “4-aminobut-2-enamide derivatives and salt thereof” (TAIHO PHARMACEUTICAL CO., LTD., priority 2019, dated 2026):

Legend:
[1] = biological target: Gppcp-bound recombinant K-Ras4B G12C mutant protein (amino acids 1-169, C51S/C80L/C118S) (Homo sapiens, UniProt P01116, C118S/C51S/C80L/G12C); test: KRASG12C binding assay (LC-MS compound binding rate); details: test compound final concentration 0.5 μM, 25° C., 1 hour
Description: As test compounds for the KRASG12C binding assay, the compounds obtained in the “Preparation of Compounds” section were used. Sample solutions each containing a test compound were prepared in the form of a 10 mM DMSO solution.
Gppcp-bound recombinant K-Ras4B G12C mutant protein (amino acids 1-169, C51S/C80L/C118S, SEQ ID NO:1) was diluted with a buffer (1×TBS, 0.1 mM TCEP, 0.25 mM MgCl2, 50 μM Gppcp) to prepare a 50 nM protein solution. K-Ras4B is the major splicing variant of K-Ras. Amino acid sequence of residues 1 to 150 including the compounds' binding region of K-Ras4B is exactly same as that of K-Ras4A, the other splicing variant (Oncotarget. 2016 Jul. 19; 7(29): 46717-46733). A sample solution containing 10 mM test compound was diluted ten-fold with DMSO to make a 1 mM sample solution, and then diluted twenty-fold with DMSO to make a 50 μM sample solution. 1 μL of a 50 μM sample solution was added to 100 μL of a 50 nM protein solution to adjust the final concentration of a test compound to be 0.5 μM in the mixture. The mixtures were stored in an incubator at 25° C. for 1 hour, and 10 μL of a 1×TBS solution containing 2% formic acid was added to stop the reaction, followed by LC-MS measurement. LC-MS measurement was performed using Xevo G2-S Q-Tof manufactured by Waters, and reverse-phase chromatography was performed with a desalting column. A mass spectrum of positive ions was obtained by electrospray. For a mass spectrum, a spectrum of polyvalent ions was collectively converted to a molecular weight by using OpenLynx software by the MaxEnt technique, and a compound binding rate was calculated from the ratio of the signal intensity of a peak that corresponds to the molecular weight of the protein to the signal intensity of a peak that corresponds to the molecular weight of the protein conjugated with the compound.
The binding assay of the test compounds was conducted at a final concentration of 0.5 μM. A binding rate of 80% or more is rated “A”, a binding rate of 60% or more and less than 80% is rated “B”, a binding rate of 40% or more and less than 60% is rated “C”, a binding rate of 20% or more and less than 40% is rated “D”, and a binding rate of less than 20% is rated “E”. N.D.=not determined. Binding rate % is the ratio of KRAS signal intensity at the molecular weight of one molecule adduct to the sum of all the KRAS signal intensity (unbound form and adducts) in mass spectrum.
Thus, binding rate 100% means that only the one molecule adduct was observed without any unbound KRAS.

[2] = biological target: T1, GMPPNP-bound KRAS G12C protein and cRAF RAS-binding domain (cRAF-RBD) (Homo sapiens, UniProt P01116, G12C); test: Inhibitory activity on interaction between KRAS G12C and cRAF (Alpha technology); assay type: biochemical; details: GMPPNP-bound KRAS G12C incubated with compound at 25° C. for 1 hour, then cRAF-RBD, Alpha signal; read-out: IC50
T1 construct: made in house; host or cells: E. coli
Description: Interaction between recombinant K-Ras4B G12C mutant protein (amino acids 1-169, SEQ ID NO:2) and cRAF RAS-binding domain (cRAF-RBD, amino acids 50-132, Jena Biosciences GmbH) was measured using Alpha technology (PerkinElmer Inc.).
Recombinant KRAS G12C protein with an N-terminal His-tag was expressed in E. coli and purified by affinity chromatography. To prepare GTP-bound form and GDP-bound form of KRAS G12C protein, 50 μM KRAS G12C protein was incubated with 1 mM GMPPNP (Guanosine-5′-[(β,γ)-imido]triphosphate, Tetralithium salt) (Jena Bioscience GmbH) and 1 mM GDP, respectively, in a loading buffer (20 mM Tris-HCl (pH 7.5), 50 mM NaCl, 1 mM DTT and 2.5 mM EDTA) for 1 hour on ice. After the incubation, MgCl2 was added to a final concentration of 10 mM, followed by incubation at room temperature for 30 minutes. The mixture was allowed to pass through a NAP-5 column to remove free nucleotides and purified, and the resultant nucleotide-bound KRAS G12C protein was used for compound evaluation.
For the measurement of the inhibitory activity of compounds on interaction between KRAS G12C and cRAF-RBD, GMPPNP-bound KRAS G12C protein was incubated with various concentrations of compound in a reaction buffer (20 mM Tris-HCl (pH 7.5), 100 mM NaCl, 1 mM MgCl2, 1 mM TCEP, 0.1% Tween 20) at 25° C. for 1 hour. After the incubation, recombinant cRAF-RBD and Alpha detection reagents were added and incubated at room temperature for 1.5 hours for binding. Interaction 5 of KRAS G12C and cRAF-RBD was monitored by measuring Alpha signal. Inhibition % was calculated using the signal from the reaction without test compound (DMSO control) as 0% inhibition and the signal from the reaction using GDP-bound KRAS G12C in place of GMPPNP-bound KRAS G12C as 100% inhibition. IC50 values were calculated from dose titration curve using curve fitting by XLfit software (IDBS).

Row | IC50 [2] | SMILES | binding rate [1]
1 | 0.13 µM | CO[C@H]1CC[C@H](NC/C=C/C(=O)Nc2ccc(C(=O)c3ccc4c(-c5cc6cn(C)nc6cc5C)cccn34)cc2C#N)CC1 [Example 76, (E)-N-(2-cyano-4-(8-(2,6-dimethyl-2H-indazol-5-yl)indolizine-3-carbonyl)phenyl)-4-(((1r,4r)-4-methoxycyclohexyl)amino)but-2-enamide] | A (A binding rate of 80% or more is rated “A”)
2 | 0.63 µM | COc1ccc(Cl)c(-c2cccc(NC(=O)c3ccc(NC(=O)/C=C/CNC4CCN(S(C)(=O)=O)CC4)c(C#N)c3)c2)c1OC [Example 11, (E)-N-(6′-chloro-2′,3′-dimethoxy-[1,1′-biphenyl]-3-yl)-3-cyano-4-(4-((1-(methylsulfonyl)piperidin-4-yl)amino)but-2-enamido)benzamide] | B (a binding rate of 60% or more and less than 80% is rated “B”)
3 | 0.24 µM | CO[C@H]1CC[C@H](NC/C=C/C(=O)Nc2ccc(C(=O)c3nn(C)c4c(-c5cc6ncn(C)c6cc5C)cccc34)cc2C#N)CC1 [Example 58, (E)-N-(2-cyano-4-(7-(1,6-dimethyl-1H-benzo[d]imidazol-5-yl)-1-methyl-1H-indazole-3-carbonyl)phenyl)-4-(((1r,4r)-4-methoxycyclohexyl)amino)but-2-enamide] | B (a binding rate of 60% or more and less than 80% is rated “B”)
4 | 0.034 µM | CCN(CC)[C@H]1CC[C@H](NC/C=C/C(=O)Nc2ccc(C(=O)Nc3cccc(-c4cc5ncn(C)c5cc4Cl)c3)cc2C#N)CC1 [Example 19, N-(3-(6-chloro-1-methyl-1H-benzo[d]imidazol-5-yl)phenyl)-3-cyano-4-((E)-4-(((1r,4r)-4-(diethylamino)cyclohexyl)amino)but-2-enamido)benzamide] | A (A binding rate of 80% or more is rated “A”)
5 | 20 µM | O=C(/C=C/CN[C@H]1CC[C@H](O)CC1)Nc1ccc(C(=O)Nc2cccc(Br)c2)cn1 [Comparative example 1, N-(3-bromophenyl)-6-((E)-4-(((1r,4r)-4-hydroxycyclohexyl)amino)but-2-enamido)nicotinamide, reference compound] | E (a binding rate of less than 20% is rated “E”)
6 | 0.14 µM | CO[C@H]1CC[C@H](NC/C=C/C(=O)Nc2ccc(C(=O)Nc3cc(F)c(F)c(-c4cc5ncn(C)c5cc4C)c3)cc2C#N)CC1 [Example 18, 3-cyano-N-(3-(1,6-dimethyl-1H-benzo[d]imidazol-5-yl)-4,5-difluorophenyl)-4-((E)-4-(((1r,4r)-4-methoxycyclohexyl)amino)but-2-enamido)benzamide] | A (A binding rate of 80% or more is rated “A”)
7 | 0.075 µM | CS(=O)(=O)N1CCC(NC/C=C/C(=O)Nc2ccc(C(=O)Nc3cccc(-c4cc5nccn5cc4Cl)c3)cc2C#N)CC1 [Example 17, (E)-N-(3-(6-chloroimidazo[1,2-a]pyridin-7-yl)phenyl)-3-cyano-4-(4-((1-(methylsulfonyl)piperidin-4-yl)amino)but-2-enamido)benzamide] | B (a binding rate of 60% or more and less than 80% is rated “B”)
8 | 0.35 µM | COCc1nc2cc(-c3cccc(NC(=O)c4ccc(NC(=O)/C=C/CNC5CCCCC5)c(C#N)c4)c3)c(C(F)(F)F)cc2n1C [Example 27, (E)-3-cyano-4-(4-(cyclohexylamino)but-2-enamido)-N-(3-(2-(methoxymethyl)-1-methyl-6-(trifluoromethyl)-1H-benzo[d]imidazol-5-yl)phenyl)benzamide] | B (a binding rate of 60% or more and less than 80% is rated “B”)
9 | 0.2 µM | COc1ccccc1-c1cccn2c(C(=O)c3ccc(NC(=O)/C=C/CN[C@H]4CC[C@H](OC)CC4)c(C#N)c3)ccc12 [Example 40, (E)-N-(2-cyano-4-(8-(2-methoxyphenyl)indolizine-3-carbonyl)phenyl)-4-(((1r,4r)-4-methoxycyclohexyl)amino)but-2-enamide] | B (a binding rate of 60% or more and less than 80% is rated “B”)
10 | 0.41 µM | CCN(CC)[C@H]1CC[C@H](NC/C=C/C(=O)Nc2ccc(C(=O)Nc3cccc(-c4cc5nc(C)n(C)c5cc4Cl)c3)cc2F)CC1 [Example 13, N-(3-(6-chloro-1,2-dimethyl-1H-benzo[d]imidazol-5-yl)phenyl)-4-((E)-4-(((1r,4r)-4-(diethylamino)cyclohexyl)amino)but-2-enamido)-3-fluorobenzamide] | B (a binding rate of 60% or more and less than 80% is rated “B”)
11 | 0.56 µM | CO[C@H]1CC[C@H](NC/C=C/C(=O)Nc2ccc(C(=O)c3c[nH]c4c(-c5cc6ncn(C)c6cc5C(F)(F)F)cc(Cl)cc34)cc2C#N)CC1 [Example 47, (E)-N-(4-(5-chloro-7-(1-methyl-6-(trifluoromethyl)-1H-benzo[d]imidazol-5-yl)-1H-indole-3-carbonyl)-2-cyanophenyl)-4-(((1r,4r)-4-methoxycyclohexyl)amino)but-2-enamide] | A (A binding rate of 80% or more is rated “A”)
12 | 0.14 µM | CO[C@H]1CC[C@H](NC/C=C/C(=O)Nc2ccc(C(=O)c3ccc4c(-c5ccc6nn(C)cc6c5Cl)cccn34)cc2C#N)CC1 [Example 71, (E)-N-(4-(8-(4-chloro-2-methyl-2H-indazol-5-yl)indolizine-3-carbonyl)-2-cyanophenyl)-4-(((1r,4r)-4-methoxycyclohexyl)amino)but-2-enamide] | A (A binding rate of 80% or more is rated “A”)
13 | 0.25 µM | COCc1nc2cc(-c3cccc(NC(=O)c4ccc(NC(=O)/C=C/CNC5CC6C(C5)C6(F)F)c(C#N)c4)c3)c(C(F)(F)F)cc2n1C (stereo not shown) [Example 25, (E)-3-cyano-4-(4-((6,6-difluorobicyclo[3.1.0]hexan-3-yl)amino)but-2-enamido)-N-(3-(2-(methoxymethyl)-1-methyl-6-(trifluoromethyl)-1H-benzo[d]imidazol-5-yl)phenyl)benzamide] | A (A binding rate of 80% or more is rated “A”)
14 | 0.17 µM | CO[C@H]1CC[C@H](NC/C=C/C(=O)Nc2ccc(C(=O)c3ccc4c(-c5c(Cl)ncn5C(C)C)cccn34)cc2C#N)CC1 [Example 74, (E)-N-(4-(8-(4-chloro-1-isopropyl-1H-imidazol-5-yl)indolizine-3-carbonyl)-2-cyanophenyl)-4-(((1r,4r)-4-methoxycyclohexyl)amino)but-2-enamide] | B (a binding rate of 60% or more and less than 80% is rated “B”)
